Results published in publication PMC8242077, “Allosteric drug transport mechanism of multidrug transporter AcrB” (Nature Communications, 2021).

Target: T1, AcrB (Escherichia coli, UniProt P31224)
T1 construct: full-length, His-tagged (pET24acrBHis), from E. coli C43(DE3) delta-acrAB; homotrimer, DDM-solubilised; crystallised with DARPins
Assay: X-ray co-crystal structure
Format: binding
Conditions: DARPin chaperone

T1 sequence (P31224 whole entry): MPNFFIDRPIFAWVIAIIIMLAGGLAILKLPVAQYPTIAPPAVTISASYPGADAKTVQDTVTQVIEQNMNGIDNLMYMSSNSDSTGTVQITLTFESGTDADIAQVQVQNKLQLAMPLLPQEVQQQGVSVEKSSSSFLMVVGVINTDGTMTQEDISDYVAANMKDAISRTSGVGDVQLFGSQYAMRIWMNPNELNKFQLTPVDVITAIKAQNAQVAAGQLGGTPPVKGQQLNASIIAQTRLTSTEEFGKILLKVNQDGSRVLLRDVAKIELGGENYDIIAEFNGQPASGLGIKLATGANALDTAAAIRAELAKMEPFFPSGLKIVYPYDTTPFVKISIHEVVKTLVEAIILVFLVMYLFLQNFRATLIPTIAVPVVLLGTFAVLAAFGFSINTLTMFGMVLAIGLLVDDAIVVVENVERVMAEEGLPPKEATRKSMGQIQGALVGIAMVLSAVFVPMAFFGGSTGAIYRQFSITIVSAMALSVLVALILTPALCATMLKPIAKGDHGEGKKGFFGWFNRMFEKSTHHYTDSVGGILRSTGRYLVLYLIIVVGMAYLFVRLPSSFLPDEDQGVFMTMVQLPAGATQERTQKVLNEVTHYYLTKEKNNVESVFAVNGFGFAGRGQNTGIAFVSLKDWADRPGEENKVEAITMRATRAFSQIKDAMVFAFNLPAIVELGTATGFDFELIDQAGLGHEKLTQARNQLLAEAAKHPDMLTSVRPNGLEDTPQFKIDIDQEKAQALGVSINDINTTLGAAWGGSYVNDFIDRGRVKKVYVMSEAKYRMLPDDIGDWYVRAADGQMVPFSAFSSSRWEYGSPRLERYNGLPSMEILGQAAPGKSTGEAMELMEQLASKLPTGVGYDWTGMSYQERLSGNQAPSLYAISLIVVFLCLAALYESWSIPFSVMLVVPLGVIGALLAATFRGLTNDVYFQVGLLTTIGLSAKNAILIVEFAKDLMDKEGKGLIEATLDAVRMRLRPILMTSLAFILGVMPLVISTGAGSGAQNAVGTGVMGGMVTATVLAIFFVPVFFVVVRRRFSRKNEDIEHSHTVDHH

CO[C@H]1/C=C/O[C@@]2(C)Oc3c(C)c(O)c4c(O)c(c(C=O)c(O)c4c3C2=O)NC(=O)/C(C)=C\C=C\[C@H](C)[C@H](O)[C@@H](C)[C@@H](O)[C@@H](C)[C@H](OC(C)=O)[C@@H]1C [3-formylrifamycin SV]
X-ray co-crystal structure (access pocket of L protomer, crystallised with 3 mM rifampicin): co-crystal AcrB/3-formylrifamycin SV (3-FOR) structure

CC(=O)O[C@H]1C[C@@]2(C)[C@@H](C[C@@H](O)[C@H]3[C@@]4(C)CC[C@@H](O)[C@@H](C)[C@@H]4CC[C@@]32C)/C1=C(\CCC=C(C)C)C(=O)O [fusidic acid]
X-ray co-crystal structure (T protomer: TMD-BP, TM1/TM2 groove and TM7/TM8 groove, co-crystallised with 1 mM each fusidic acid, erythromycin, linezolid, oxacillin): co-structure with FUA bound to a deep concave crevice surrounded by TM2, TM4, TM10-12
